Assay results as given in patent US8062860B2, “Kit for measuring in vivo mutation frequency at an endogenous gene locus” (Litron Laboratories, Ltd., priority 2006, dated 2011).
Entries after “also recorded” stand apart in the source; their conditions may differ.

Key:
pig-a gene [1] = experiment: mutant erythrocytes versus mutant reticulocytes, FSC and FL1 thresholding (Example 5); type: in vivo, rat; settings: rats, 100 mg ENU/kg/day or 40 mg DMBA/kg/day three times in one week; 4 weeks post-exposure; vs untreated; FIG. 7
Source text: In practice, this means the mutation frequency for entire erythrocyte population and a mutation frequency for the reticulocyte fraction can each be efficiently determined by analyzing each stained blood specimen two times: once at high density with FL1 thresholding, and a second time upon dilution using a FSC threshold setting. In this manner it is possible to efficiently interrogate enough cells (e.g. 10^6 reticulocytes and also 10^6 total erythrocytes) for accurate measures of mutant frequency (see FIGS. 4A-B).
For this experiment, rats were untreated, or exposed to 100 mg ENU/kg/day or 40 mg DMBA/kg/day. These exposures were performed three times in one week (M, W, F). Blood was collected from the tail vein of these animals 4 weeks post-exposure. Blood samples were stained according to the present invention. Specifically, high density blood specimens were contacted with anti-CD59-PE to differentially label mutant and non-mutant erythrocytes, and biotinylated anti-CD61 followed by streptavidin-Cy5-PE as a platelet-specific label used to exclude these particles from analysis. After a washing steps to remove unbound antibodies and streptavidin-Cy5-PE, cells were resuspended in a thiazole orange solution (0.1 μg/ml) and allowed to incubate at room temperature for about 30 minutes. Specimens were placed on ice and protected from light until flow cytometric analysis (within about 4 hours). Cells were analyzed at low density with FSC thresholding, and also at high density with FL1 thresholding. As described in Example 2, this provided mutant frequencies in both the total erythrocyte and the reticulocyte populations.

pig-a gene [2] = experiment: pig-a mutant erythrocyte frequency measured with and without aerolysin selective lysis, using counting beads (Example 3); type: in vivo, Sprague-Dawley rat; settings: female rats; ENU 100 mg/kg/day or DMBA 40 mg/kg/day on three days; blood 6 weeks thereafter; vs untreated; FIG. 5
Description: Blood samples are obtained and processed (labeling with fluorochromes) as described above. Specimens were subsequently divided to provide pig-a mutant erythrocyte frequency measurements made with and without the use of aerolysin. To each of the samples, a small volume of high density microsphere suspension is added. Preferably, between about 10^3 to about 10^6 microspheres/specimen are added. Suitable microspheres are commercially available from a number of sources, including Becton Dickinson, Molecular Probes, and Polysciences. After mixing each sample to ensure a homogeneous suspension, a small aliquot of each cell/microsphere solution is transferred to a tube containing a balanced salt solution such that the resulting dilution yields a density of beads and cells which is low enough so that the rate of particles passing through the detection device yields accurate measurements (e.g., less than about 7,000 events per second for a Becton Dickinson FACSCalibur; higher densities may lead to excessive coincidence, which is multiple particles simultaneously at the fluid stream-laser beam intersection). The other (undiluted) specimen is treated with aerolysin to lyse the majority of non-mutant erythrocytes and reticulocytes. Reticulocyte:bead ratios are measured for both diluted and undiluted/aerolysin-treated samples using, e.g., an optical detection system of the type described above. From these ratios, it is possible to calculate the frequency of mutant reticulocytes per 10^6 reticulocytes.
For example, a small volume of a bead stock suspension (10 μl) is added to a suspension of high density cells that have been stained for a mutation frequency determination (1 ml). A small fraction of the cell/bead suspension is then transferred to a tube containing an isotonic solution such that the resulting density of beads and cells is low enough to prevent excessive coincidence. Flow cytometric analysis then allows for determination of the reticulocyte to bead ratio; for example 7,500 reticulocytes and 100 beads would indicate a ratio of 75 reticulocytes per bead. The aerolysin-treated specimen (with a majority of non-mutant erythrocytes and reticulocytes lysed due to aerolysin) is subsequently analyzed. Even while the majority of erythrocytes and reticulocytes have been lysed, it is still possible to analyze 10^6 or more “virtual reticulocytes” by setting the stop mode so that the proportionate number of beads (which are unaffected by aerolysin) have been interrogated. In this example, the stop mode would be set so that data accumulate until 10^6 divided by 75 beads have been acquired, i.e., 13,333 beads. In this manner, it is possible to score the number of mutant reticulocytes per 13,333 beads, or in other words, per 10^6 virtual reticulocytes. […]

pig-a gene [3] = experiment: time course of CD59-negative reticulocyte frequency with FL1 thresholding (Example 4); type: in vivo, Sprague Dawley rat
Source text: In this case, it is possible to set the threshold parameter to the nucleic acid dye-associated fluorescence channel (e.g., FL1 for thiazole orange), as opposed to the more common forward scatter trigger. When set sufficiently high (that is, above the fluorescence intensity of mature erythrocytes), this can restrict analysis to reticulocytes.
Rather, it must be coupled with the preparation of very high density specimens. When these two adjustments are made, much quicker data acquisition rates are achieved. For instance, by eliminating mature erythrocytes with an FL1 threshold and analyzing specimens prepared at very high cell densities (for example 3×10^8/ml), it is possible to reduce the time needed to acquire 10^6 reticulocytes from 80 minutes to about 5 to 15 minutes.
The use of serial blood specimens also facilitated an assessment of the influence of blood harvest time. For this experiment, Sprague Dawley rats were treated with either vehicle or […] on three days (M, W, F). Blood was collected from the tail vein of these animals before treatment and over a 5 week post-exposure period. After two washing steps, high density blood samples were stained according to the present invention. […] Cells were analyzed according to the FL1 thresholding technique described in Example 2.

pig-a gene [4] = experiment: three-color flow cytometric scoring of pig-a mutant (CD59-negative) erythrocytes in blood of treated rats (Example 1); type: in vivo; settings: rat, 100 mg/kg/day for three days at 48 hr intervals; blood several weeks after final administration; FIG. 3E
Description: Whole blood specimens (EDTA as anticoagulant) were obtained from the tail vein of vehicle- or ethyl-N-nitrosourea (ENU) treated rats (100 mg/kg/day for three days at 48 hr intervals; blood collected several weeks after the final administration). […] Thereafter, cells were contacted with anti-CD59-PE to differentially label mutant and non-mutant erythrocytes, and biotinylated anti-CD61 followed by streptavidin-Cy5-PE as a platelet-specific label used to exclude these particles from analysis. After washing steps to remove unbound antibodies and unbound streptavidin-Cy5-PE, cells were resuspended in a thiazole orange solution (0.1 μg/ml). Specimens were incubated at room temperature for about 30 minutes, and thereafter were placed on ice until flow cytometric analysis occurred (within about 4 hours).
As shown by FIGS. 3A-E, the labeling procedure was able to successfully discriminate mature erythrocytes and reticulocytes from other cell types, as well as from platelets. Furthermore, it was capable of providing high fluorescent resolution between CD59-negative and CD59-positive erythrocytes, thus facilitating quantification of mutant erythrocyte frequency.
The flow cytometry data acquisition/analysis software (CellQuest v3.3) allowed for configuring alternative gating strategies.

SMILES | frequency of CD59-negative erythrocytes (total erythrocyte population) (pig-a gene [1]) | frequency of CD59-negative reticulocytes (pig-a gene [1]) | mutant erythrocyte (CD59-negative) frequency, analysis with aerolysin to enrich for mutants (pig-a gene [2]) | mutant erythrocyte (CD59-negative) frequency, analysis without aerolysin (pig-a gene [2]) | CD59- (mutant) reticulocyte frequency (pig-a gene [3]; rats, 100 mg ENU/mg/day on three days, 5 week post-exposure period, three animals, vs vehicle, FIG. 6) | time of maximal mutant reticulocyte frequency (pig-a gene [3]; two of the three ENU-treated animals (E2 and E3), animal E1 continued to rise through week 5) [week] | frequency of mutant (CD59-negative) erythrocytes (pig-a gene [4])
Cc1c2ccccc2c(C)c2c1ccc1ccccc12 [DMBA, 7,12-dimethyl-1,2-benz[a]anthracene] | greatly elevated | greatly elevated | significant increases | significant increases | – | – | –
CCN(N=O)C(N)=O [ENU, ethyl-N-nitrosourea] | greatly elevated | greatly elevated | significant increases | significant increases | greatly elevated; also recorded: markedly elevated | 4 | relatively high frequency of mutant erythrocytes
